How the values were obtained:
Experiment in all cases: relative IC50 (inflection point of fitted viability curve, relative to fitted max inhibition); higher = less sensitive
Conditions in all cases: 72 h
KHYG-1 (IL-2 2.5 ng/mL) = test system: KHYG-1 (IL-2 2.5 ng/mL)
Protocol: (§1)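 Drug sensitivity and resistance testing: 5 concentrations over a 10,000-fold range, 72 h at 37 °C, viability by CellTiter-Glo normalised to DMSO and benzethonium chloride controls. IC50 is the inflection point of a logistic fit (min fixed at 0, max fitted), so it is relative to the fitted maximal inhibition. Kept only where fitted max inhibition is at least 50%.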

NK-YS (IL-2 2.5 ng/mL) = test system: NK-YS (IL-2 2.5 ng/mL)
Protocol: as §1

IMC-1 (IL-2 20 ng/mL) = test system: IMC-1 (IL-2 20 ng/mL)
Protocol: as §1

DERL-7 (IL-2 2.5 ng/mL) = test system: DERL-7 (IL-2 2.5 ng/mL)
Protocol: as §1

YT (IL-2 2.5 ng/mL) = test system: YT (IL-2 2.5 ng/mL)
Protocol: as §1

NK-92 (IL-2 2.5 ng/mL) = test system: NK-92 (IL-2 2.5 ng/mL)
Protocol: as §1

[1] = test system: normal primary NK cells, pool 3 (3 donors) (IL-2 2.5 ng/mL)
Protocol: as §1

KAI3 (IL-2 2.5 ng/mL) = test system: KAI3 (IL-2 2.5 ng/mL)
Protocol: as §1

NKL (IL-2 2.5 ng/mL) = test system: NKL (IL-2 2.5 ng/mL)
Protocol: as §1

[2] = test system: normal primary NK cells, pool 1 (3 donors) (IL-2 2.5 ng/mL)
Protocol: as §1

[3] = test system: normal primary NK cells, pool 2 (3 donors) (IL-2 2.5 ng/mL)
Protocol: as §1

SNK-6 (IL-2 2.5 ng/mL) = test system: SNK-6 (IL-2 2.5 ng/mL)
Protocol: as §1

[4] = test system: normal primary NK cells, pool 1 (3 donors), resting (IL-2 0 ng/mL)
Protocol: as §1

Row | Compound | relative IC50 (KHYG-1 (IL-2 2.5 ng/mL)) [nM] | relative IC50 (NK-YS (IL-2 2.5 ng/mL)) [nM] | relative IC50 (IMC-1 (IL-2 20 ng/mL)) [nM] | relative IC50 (DERL-7 (IL-2 2.5 ng/mL)) [nM] | relative IC50 (YT (IL-2 2.5 ng/mL)) [nM] | relative IC50 (NK-92 (IL-2 2.5 ng/mL)) [nM] | relative IC50 [1] [nM] | relative IC50 (KAI3 (IL-2 2.5 ng/mL)) [nM] | relative IC50 (NKL (IL-2 2.5 ng/mL)) [nM] | relative IC50 [2] [nM] | relative IC50 [3] [nM] | relative IC50 (SNK-6 (IL-2 2.5 ng/mL)) [nM] | relative IC50 [4] [nM]
1 | CCNC(=O)c1noc(-c2cc(C(C)C)c(O)cc2O)c1-c1ccc(CN2CCOCC2)cc1 [Luminespib] | 10.4 | 3.79 | 9.73 | 3.05 | 26.2 | 7.37 | 4.81 | 3.47 | 3.28 | 3.66 | 3.27 | 12.4 | 
2 | CO[C@@H]1[C@H](N(C)C(=O)c2ccccc2)C[C@H]2O[C@]1(C)n1c3ccccc3c3c4c(c5c6ccccc6n2c5c31)C(=O)NC4 [Midostaurin] | 186 | 338 | 486 | 217 | 431 | 330 | 594 | 175 | 127 | 188 | 438 | 115 | 1050
3 | CNC(=O)c1nn(C)c2c1C(C)(C)Cc1cnc(Nc3ccc(N4CCN(C)CC4)cc3)nc1-2 [Milciclib] | 278 | 1170 | 3420 | 634 | 1680 | 1190 | 1470 | 1230 | 1220 | 1100 | 775 | 1780 | 449
4 | Cc1cc(OCc2nnc(SC3CCCC3)n2-c2cccnc2)ccc1-c1ccc(S(C)(=O)=O)cc1 [NMS-873] | 250 | 114 | 40.2 | 1410 | 48.7 | 506 | 1680 | 1270 | 488 | 909 | 767 | 1440 | 455
5 | COc1ccc(-c2ccc3ncc4c(c3c2)n(-c2ccc(N3CCNCC3)c(C(F)(F)F)c2)c(=O)n4C)cn1 [NVP-BGT226] | 48.4 | 25.3 | 90.7 | 8.54 | 45.6 | 29.8 | 167 | 45.8 | 47.8 | 105 | 128 | 53.8 | 64.4
6 | C1=N/C2=N/c3ccc(OCCN4CCCC4)c(c3)COC/C=C/COCc3cccc(c3)C(=C1)N2 [Pacritinib] | 826 | 982 | 3880 | 560 | 910 | 1220 | 627 | 569 | 777 | 410 | 367 | 1390 | 838
7 | CCOc1cc2ncc(C#N)c(Nc3ccc(F)c(Cl)c3)c2cc1NC(=O)/C=C/CN(C)C [Pelitinib] | 382 | 820 | 966 | 293 | 496 | 510 | 429 | 260 | 475 | 300 | 260 | 103 | 459
8 | CNNCc1ccc(C(=O)NC(C)C)cc1 [Procarbazine] | > 10000 | > 10000 | > 10000 | > 10000 | > 10000 | > 10000 | > 10000 | > 10000 | > 10000 | > 10000 | > 10000 |  | 
9 | Cn1cc(CNCC2CCN(c3ncc(C(=O)NO)cn3)CC2)c2ccccc21 [Quisinostat] | 21.4 | 20.3 | 35.8 | 10.6 | 58.3 | 39.5 | 13.1 | 14.7 | 11 | 7.78 | 5.99 | 90.1 | 2.39
10 | CN(C)Cc1ccc(S(=O)(=O)n2ccc(/C=C/C(=O)NO)c2)cc1 [Resminostat] | 731 | 1300 | 3480 | 1040 | 1460 | 629 | 1720 | 304 | 258 | 667 | 1160 | 829 | 268
11 | CN(C)C[C@@H]1CCn2cc(c3ccccc32)C2=C(C(=O)NC2=O)c2cn(c3ccccc23)CCO1 [Ruboxistaurin] | 1290 | 1540 | 4180 | 1140 | 2730 | 2950 | 2000 | 1430 | 1240 | 1430 | 2110 | 2810 | 1070
12 | O=C(O)c1ccc2c(c1)nc(Nc1cccc(Cl)c1)c1ccncc12 [Silmitasertib] | 2010 | 2170 |  | 2270 | 1650 | 3900 | 2040 | 1780 | 1850 | 1690 | 2230 | 3730 | 3780
13 | O=[N+]([O-])c1ccc2c(c1)S(=O)(=O)C=C2 [Stattic] | 1700 | 6720 | 18900 | 1220 | 1770 | 1800 | 1850 | 1100 | 4710 | 1110 | 1660 | 2020 | 1170
14 | NC(=O)Nc1sc(-c2ccc(F)cc2)cc1C(N)=O [TPCA-1] | 381 | 1440 | 7190 | 367 | 912 | 860 | 1020 | 218 | 274 | 997 | 658 | 514 | 2310
15 | Cn1cncc1[C@@](N)(c1ccc(Cl)cc1)c1ccc2c(c1)c(-c1cccc(Cl)c1)cc(=O)n2C [Tipifarnib] | 35.2 | 61.6 | 1880 | 91.8 | 349 | 270 | 723 | 94.8 | 401 | 1110 | 1580 | 74.1 | 264
16 | CC[C@@]1(O)C(=O)OCc2c1cc1n(c2=O)Cc2cc3c(CN(C)C)c(O)ccc3nc2-1 [Topotecan] | 33.8 | 39.6 | 30.8 | 54.9 | 52.5 | 20.5 | 1030 | 42 | 35 | 772 | 1320 | 40.2 | 2880
17 | CN[C@@H]1C[C@H]2O[C@@](C)([C@@H]1OC)n1c3ccccc3c3c4c(c5c6ccccc6n2c5c31)C(=O)N[C@H]4O [UCN-01] | 24.9 | 51.1 | 375 | 27 | 184 | 39.3 | 126 | 21.3 | 53.3 | 97.1 | 75.8 | 15.3 | 204
